From paper PMC8885691, “Leveraging the multivalent p53 peptide-MdmX interaction to guide the improvement of small molecule inhibitors” (Nature Communications, 2022)
Where no end group is shown, it is not given here.

Experiments:
[1] = molecular target: T1, N-MdmX (Homo sapiens, UniProt O15151); experiment: Isothermal titration calorimetry (ITC) assay
T1 sequence (O15151 22-110): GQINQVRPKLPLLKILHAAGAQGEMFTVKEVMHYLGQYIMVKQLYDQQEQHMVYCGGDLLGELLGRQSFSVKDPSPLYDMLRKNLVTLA
Procedure: The protein−ligand interactions were characterized using a model ITC-200 isothermal titration microcalorimeter (Malvern, USA) at 25 °C. A typical experiment included the injection of 19 aliquots (2.0 μL each) containing an ~0.2 mM ligand solution into an ~10–20 μM protein solution in the ITC cell (volume of ∼200 μL). Titrations were performed with a stirring speed of 750 rpm and a spacing time of 120 s. A control experiment was run by injecting a ligand solution into buffer instead of a protein solution in the cell. Before data analysis, the control values were subtracted from the experimental data. The binding isotherms were integrated to give the enthalpy change (ΔH) plotted as a function of the molar ratio of the ligand. When necessary, prior to the integration procedures, the baseline was manually adjusted to minimize the background noise. The Origin 7.0-based software was used for data analysis with the one-set-of-binding-sites model. The disassociation constant of Kd was determined from the slope of the central linear part of the fractional saturation curve. The Gibbs free energy change (ΔG) and the entropy change (ΔS) were calculated on the basis of the following equations: ΔG =−RT ln Kd = ΔH − TΔS, where ΔH was derived from the original ΔH/molar ratio plots.

[2] = tested on: HCT116, RKO, and H460a cells; experiment: Real-time RT-qPCR of p21 and p53 genes in cancer cells with wild-type p53; assay type: cell-based; conditions: H203 for 8 h
Procedure: […]. […] […]. Total RNAs were extracted using a Trizol protocol with RNeasy® Mini kit from Qiagen (TX, USA). The concentration of RNAs was measured with Nanodrop-2000c. Real-time qPCR was performed with a BaldStar TaqMan One-Step RT-qPCR Kit from Biorab (Beijing, China) on a BioRad CFX96 qPCR instrument (CA, USA). The primers and probes for qPCR were designed using Primer Express 3.0 software (Applied Biosystems, USA). […]. TaqMan probes were labeled with 5′-FAM and 3′-TAMRA. All primers and probes were synthesized by GenScript (Nanjing, China). Samples were analyzed in triplicate and normalized to the control.

Row | Molecule | Kd [1] [µM] | transcription of the p53 gene [2] | transcription of p21 ([2]; all three cell lines)
1 | WKLLPEN [p53p^ΔF19] | 20.1 ± 3.25 |  | 
2 | O=C1CN(C(=O)N2C(c3ccc4c(c3)N(c3ccccc3)C(=O)CNC4=O)=N[C@@H](c3ccc(Cl)cc3)[C@H]2c2ccc(Cl)cc2)CCN1 [H203] |  | unaffected | increased in a dose-dependent manner
